Laboratory results reported in US12109176B1, “Effect of glycerol on biofilm forming bacteria and fungi that changes the microbes sensitivity to pro and anti-biofilm non-toxic, non-bonded plasma amino acids and amino acid derivatives” (priority 2023, dated 2024).

What was measured:
[1] = tested on: bacterial (S. aureus) biofilm; assay: Bacterial biofilm inhibition assay; assay type: cell-based, Staphylococcus aureus
Description: (§1) Two types of biofilm assays were performed: an inhibition assay and a disruption assay. The inhibition assay assesses the compound's ability to prevent biofilm development, while the disruption assay assesses the compound's ability to break up an existing mature biofilm.
(§2) All bacterial biofilm solutions were prepared in Tryptic Soy Broth (TSB), supplemented with 1% glucose (henceforth referred to as TSB-G). All subsequent procedures were performed in a manner that maintained sterility. A solution of each amino acid or an amino acid derivative to be tested was prepared in weight to volume concentrations ranging from 0.1-5.0%. Amino acids and amino acid derivatives were also tested in combinations. Compound solutions were homogenized with gentle agitation in the dark (4° C., 24 hours) before use.
(§3) 32 Amino acids and 2 amino acid derivatives of the amino acid serine that occur freely in human blood were tested. […] 31 of the 32 amino acids that were tested were the L-Isomers. Glycine has no stereoisomers. The 2 amino acid derivatives, ethanolamine and phosphoethanolamine were also tested. All biofilm assays were performed using 384-well non-tissue culture-treated polystyrene plates. The fungal species tested are as follows: Candida albicans, Candida guilliermondii, Candida parapsilosis, Candida glabrata, Candida tropicalis and Candida dubliniensis. The bacterial species tested are as follows: Staphylococci (standard wild type and methicillin-resistant strain USA300), Escherichia coli, Pseudomonas aeruginosa and Staphylococcus epidermidis.
(§4) Bacterial strains were streaked on Blood Agar plates (5% sheep blood in Tryptic Soy Broth) and incubated at 37° C. for 24 hours. A single colony from each strain to be tested was inoculated in a TSB broth and grown for 12 hours, at 37° C. with shaking (225 rpm). For the bacterial biofilm inhibition assays, 1 μL of saturated overnight cell culture was added to either 80 μL of TSB-G, or TSB-G supplemented with the amino acid compound solution to be tested, in a 384-well plate. The cells were allowed to adhere to the plate for 60 minutes at 37° C. without shaking. The media was carefully aspirated and 80 μL of TSB-G, or TSB-G supplemented with the amino acid compound solution was added to the plate. The plate was further incubated for 24 hours at 37° C. without shaking. Media was carefully aspirated and the biofilm was measured by optical density at 600 nm. Eight or twelve replicates were performed for each tested condition and the reported values are normalized to the control (TSB-G media only). For the bacterial biofilm disruption assays, 80 µL of TSB-G was added to the plate, along with 1 μL of overnight cell culture. The cells were allowed to adhere to the plate for 60 minutes at 37° C. with no shaking. The media was carefully aspirated and 80 μL of TSB-G was added to the plate. The plate was further incubated for 24 hours at 37° C. with no shaking. Media was carefully aspirated from the mature biofilm and 80 μL of TSB-G, or TSB-G supplemented with the amino acid to be tested, was gently added to the plate. The plate was further incubated for 24 hours at 37° C. without shaking. Media was aspirated and the biofilm was measured by optical density at 600 nm. Twelve replicates were performed for each tested condition and the reported values are normalized to the control (TSB-G media only).

[2] = tested on: bacterial biofilm; assay: In vitro testing on bacterial biofilm (inhibition and/or disruption); assay type: cell-based; details: in vitro testing
Description: as §1, §2, §3, §4

[3] = tested on: bacterial (S. aureus) biofilm and fungal biofilm (C. albicans); assay: Biofilm inhibition assay, bacterial and fungal taken together; assay type: cell-based; details: symbol marks the assay
Description: as §1, §2, §3
Fungal strains were streaked on Yeast Peptone Dextrose (YPD) agar plates and incubated at 30° C. for 48 hours. A single colony from each strain to be tested was inoculated into YPD broth and grown for 12 hours at 30° C., shaking at 225 rpm. […] The cells were allowed to adhere to the plate for 90 minutes at 37° C. with shaking (350 rpm). […] The plate was further incubated for 24 hours at 37° C. with shaking (350 rpm). Media was carefully aspirated and the biofilm was measured by optical density at 600 nm. […] The cells were allowed to adhere to the plate for 90 minutes at 37° C. with shaking (350 rpm). […] The plate was further incubated for 24 hours at 37° C. with shaking (350 rpm). […] The plate was further incubated for 24 hours at 37° C. with shaking (350 rpm). Media was carefully aspirated, and the biofilm was measured by optical density at 600 nm.
as §4, with “plate.” for “plate. The plate was further incubated for 24 hours at 37° C. without shaking. Media was aspirated and the biofilm was measured by optical density at 600 nm. Twelve replicates were performed for each tested condition and the reported values are normalized to the control (TSB-G media only).”

[4] = Table E, in the absence of an infusion of glycerol
[5] = Table D, Neutral = no effect on the biofilm
[6] = Table F, in the presence of a sufficient concentration of glycerol

Row | SMILES | Promote B Biofilm (squares: Inhibition Biofilm Assay) ([1]; Table D, 0.1 to 5.0%) | Promote B Biofilm (squares: Inhibition Biofilm Assay) [1, 4] | effect on bacterial biofilm (in words) [2] | Neutral (square: Inhibition Biofilm Assay) [3, 5] | Neutral (square: Inhibition Biofilm Assay) [3, 4] | Neutral (square: Inhibition Biofilm Assay) [3, 6] | Reduce or Inhibit B Biofilm (squares: Inhibition Biofilm Assay) ([1]; Table D, 0.1 to 5.0%) | Reduce or Inhibit B Biofilm (squares: Inhibition Biofilm Assay) [1, 6]
1 | CC[C@H](C)[C@H](N)C(=O)O [Isoleucine, L-isoleucine] | ▪ (Single square [ie. ▪] signifies little effect on the Inhibition Biofilm Assay (from about 10 to less than 30%)) | ▪ (Single square [ie. ▪] signifies little effect on the Inhibition Biofilm Assay (from about 10 to less than 30%)) | promoted bacterial biofilm formation |  |  |  |  | 
2 | NCCCC[C@H](N)C(=O)O [Lysine, L-lysine] | ▪ (Single square [ie. ▪] signifies little effect on the Inhibition Biofilm Assay (from about 10 to less than 30%)) | ▪ (Single square [ie. ▪] signifies little effect on the Inhibition Biofilm Assay (from about 10 to less than 30%)) | promoted bacterial biofilm formation |  |  |  |  | 
3 | NCC(=O)O [Glycine, L-glycine] | ▪ (Single square [ie. ▪] signifies little effect on the Inhibition Biofilm Assay (from about 10 to less than 30%)) | ▪ (Single square [ie. ▪] signifies little effect on the Inhibition Biofilm Assay (from about 10 to less than 30%)) | promoted bacterial biofilm formation |  |  |  |  | 
4 | O=C(O)[C@@H]1CCCN1 [Proline, L-proline] |  |  | promoted bacterial biofilm formation | ▪ (Single square [ie. ▪] signifies little effect on the Inhibition Biofilm Assay (from about 10 to less than 30%)) | ▪ (Single square [ie. ▪] signifies little effect on the Inhibition Biofilm Assay (from about 10 to less than 30%)) | ▪ (Single square [ie. ▪] signifies little effect on the Inhibition Biofilm Assay (from about 10 to less than 30%)) |  | 
5 | CC(C)C[C@H](N)C(=O)O [Leucine, L-leucine] | ▪ (Single square [ie. ▪] signifies little effect on the Inhibition Biofilm Assay (from about 10 to less than 30%)) | ▪ (Single square [ie. ▪] signifies little effect on the Inhibition Biofilm Assay (from about 10 to less than 30%)) | promoted bacterial biofilm formation |  |  |  |  | 
6 | C[C@@H](O)[C@H](N)C(=O)O [Threnonine, L-threonine] |  |  | promoted bacterial biofilm formation |  |  |  |  | 
7 | N=C(N)NCCC[C@H](N)C(=O)O [Arginine, L-arginine] | ▪ (Single square [ie. ▪] signifies little effect on the Inhibition Biofilm Assay (from about 10 to less than 30%)) | ▪ (Single square [ie. ▪] signifies little effect on the Inhibition Biofilm Assay (from about 10 to less than 30%)) | promoted bacterial biofilm formation |  |  |  |  | 
8 | NCCC(=O)O [Beta-Alanine, Beta-alanine] |  |  | antibacterial biofilm effect |  |  |  | ▪ (Single square [ie. ▪] signifies little effect on the Inhibition Biofilm Assay (from about 10 to less than 30%)) | ▪ (Single square [ie. ▪] signifies little effect on the Inhibition Biofilm Assay (from about 10 to less than 30%))
9 | Cn1cnc(C[C@H](N)C(=O)O)c1 [1-Methylhistidine, 1-methyl-L-histidine] |  |  |  | ▪ (Single square [ie. ▪] signifies little effect on the Inhibition Biofilm Assay (from about 10 to less than 30%)) | ▪ (Single square [ie. ▪] signifies little effect on the Inhibition Biofilm Assay (from about 10 to less than 30%)) | ▪ (Single square [ie. ▪] signifies little effect on the Inhibition Biofilm Assay (from about 10 to less than 30%)) |  | 
10 | NC(=O)C[C@H](N)C(=O)O [Asparagine, L-asparagine] | ▪ (Single square [ie. ▪] signifies little effect on the Inhibition Biofilm Assay (from about 10 to less than 30%)) | ▪ (Single square [ie. ▪] signifies little effect on the Inhibition Biofilm Assay (from about 10 to less than 30%)) | promoted bacterial biofilm formation |  |  |  |  | 
11 | NCCC[C@H](N)C(=O)O [Ornithine, L-ornithine] |  |  | promoted bacterial biofilm formation | ▪ (Single square [ie. ▪] signifies little effect on the Inhibition Biofilm Assay (from about 10 to less than 30%)) | ▪ (Single square [ie. ▪] signifies little effect on the Inhibition Biofilm Assay (from about 10 to less than 30%)) | ▪ (Single square [ie. ▪] signifies little effect on the Inhibition Biofilm Assay (from about 10 to less than 30%)) |  | 
12 | CSCC[C@H](N)C(=O)O [Methionine, L-methionine] | ▪ (Single square [ie. ▪] signifies little effect on the Inhibition Biofilm Assay (from about 10 to less than 30%)) | ▪ (Single square [ie. ▪] signifies little effect on the Inhibition Biofilm Assay (from about 10 to less than 30%)) | promoted bacterial biofilm formation |  |  |  |  | 
13 | CCC(N)C(=O)O (stereo not shown) [2 Aminobutyric Acid, 2-aminobutyric acid] |  |  |  | ▪ (Single square [ie. ▪] signifies little effect on the Inhibition Biofilm Assay (from about 10 to less than 30%)) | ▪ (Single square [ie. ▪] signifies little effect on the Inhibition Biofilm Assay (from about 10 to less than 30%)) | ▪ (Single square [ie. ▪] signifies little effect on the Inhibition Biofilm Assay (from about 10 to less than 30%)) |  | 
14 | NC(=O)NCCC[C@H](N)C(=O)O [Citrulline, L-citrulline] | ▪ (Single square [ie. ▪] signifies little effect on the Inhibition Biofilm Assay (from about 10 to less than 30%)) | ▪ (Single square [ie. ▪] signifies little effect on the Inhibition Biofilm Assay (from about 10 to less than 30%)) | promoted bacterial biofilm formation |  |  |  |  | 
15 | NCCS(=O)(=O)O [Taurine, L-taurine] |  |  | promoted bacterial biofilm formation |  |  |  |  | 
